These results are taken from patent US20240358783A1, “METHOD AND SYSTEM FOR THE TRANSDERMAL ADMINISTRATION OF A P[…]” (LYFE CHNG, LLC, priority 2021, published 2024).

The nature of the series: skin flux of psilocin, inventors' testing. It counts as in vitro ADME. As for the experimental part: With psilocin, specifically, the Madsen et al. findings provide a starting point for identifying optimal plasma psilocin levels that correlate with a desired 5-HT2A receptor occupancy levels. According to the inventors' testing, the skin flux of psilocin is in the range of 1 μg/cm^2/hr to […], on average 5 μg/cm^2/hr. With patch area of 50 cm^2 the dose per hour input ranges from 50 μg/hr/patch to 500 μg/hr/patch. At this patch size, the high end of the hourly input is approaching that of a 1-mg intravenous application. The daily dose ranges from 1.2 mg/day/patch to 12 mg/day/patch. At a skin flux of 5 μg/cm^2/hr, the hourly input is 250 μg/hr/patch and the daily dose is 6 mg/day/patch. A suitable transdermal system for accomplishing the aforementioned delivery profile can be constructed as described above.

Where [1] appears, read: patch area of 50 cm^2, at a skin flux of 5 μg/cm^2/hr.

With `CN(C)CCc1c[nH]c2cccc(O)c12` [psilocin], for the setting “average, according to the inventors' testing”, the “skin flux of psilocin, on average” value is on record as 5 μg/cm^2/hr. Further, under setting [1], the daily dose was found to be 6 mg/day/patch and the hourly input is reported as 250 μg/hr/patch.
